According to patent US5523460A, “4-fluorobiphenyl derivatives” (Fujirebio Inc., priority 1993, dated 1996):

What follows are molecules tested against T1, HMG-CoA Reductase (Rattus norvegicus, UniProt P51639) (assay: biochemical). Conditions: method of J. Biol. Chem. Vol. 234, page 2835 (1959); read-out: HMG-CoA Reductase Inhibitory Activity IC50.
T1 sequence (P51639 1-887): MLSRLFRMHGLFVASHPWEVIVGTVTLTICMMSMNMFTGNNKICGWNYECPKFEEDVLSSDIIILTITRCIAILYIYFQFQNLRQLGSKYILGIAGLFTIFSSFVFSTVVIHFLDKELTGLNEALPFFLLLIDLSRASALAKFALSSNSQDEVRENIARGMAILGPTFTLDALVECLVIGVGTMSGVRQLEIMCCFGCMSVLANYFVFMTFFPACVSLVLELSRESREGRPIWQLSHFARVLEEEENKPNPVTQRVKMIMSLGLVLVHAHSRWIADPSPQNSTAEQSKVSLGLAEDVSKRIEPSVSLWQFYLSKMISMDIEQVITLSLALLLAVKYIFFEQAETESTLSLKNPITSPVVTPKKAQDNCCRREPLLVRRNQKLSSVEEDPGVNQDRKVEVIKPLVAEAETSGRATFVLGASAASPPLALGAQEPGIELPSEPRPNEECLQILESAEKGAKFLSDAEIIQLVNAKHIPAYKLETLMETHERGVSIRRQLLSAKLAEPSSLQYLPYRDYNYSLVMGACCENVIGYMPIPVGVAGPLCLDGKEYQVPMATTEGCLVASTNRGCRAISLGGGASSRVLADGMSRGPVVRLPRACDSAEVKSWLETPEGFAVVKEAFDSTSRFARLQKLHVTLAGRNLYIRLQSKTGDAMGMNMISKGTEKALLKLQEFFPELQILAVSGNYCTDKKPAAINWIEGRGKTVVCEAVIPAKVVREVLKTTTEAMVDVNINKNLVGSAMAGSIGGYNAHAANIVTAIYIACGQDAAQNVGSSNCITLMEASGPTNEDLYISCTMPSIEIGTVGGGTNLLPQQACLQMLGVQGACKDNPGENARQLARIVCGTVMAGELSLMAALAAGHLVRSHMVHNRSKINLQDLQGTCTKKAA
Method: Test 1Determination of Inhibitory Activity on HMG-CoA Reductase
The inhibitory effect on HMG-CoA Reductase of each of representative examples of the 4-fluorobiphenyl derivatives prepared in the above-discussed examples was determined in accordance with the method described in Journal of Biological Chemistry (J. Biol. Chem.) Vol. 234, page 2835 (1959), and IC50 values were obtained.
`COc1c(C)cc(C(C)C)c(/C=C/C(O)CC(O)CC(=O)O)c1-c1ccc(F)cc1` (centres unmarked) was tested, and the IC50 was 16.6 nM. Work on `COc1c(OCCO)cc(C(C)C)c(/C=C/C(O)CC(O)CC(=O)O)c1-c1ccc(F)cc1` (centres unmarked) yielded an IC50 of 20.4 nM. Work on `COc1c(Cl)cc(C(C)C)c(/C=C/C(O)CC(O)CC(=O)O)c1-c1ccc(F)cc1` (centres unmarked) yielded an IC50 of 18.7 nM. `COCCOc1cc(C(C)C)c(/C=C/C(O)CC(O)CC(=O)O)c(-c2ccc(F)cc2)c1OC` (centres unmarked) gave an IC50 of 16.1 nM. Molecule `COc1cc(C(C)C)c(/C=C/C(O)CC(O)CC(=O)O)c(-c2ccc(F)cc2)c1OC` (centres unmarked) has an IC50 of 5.43 nM. In the case of `COCCOCCOc1cc(C(C)C)c(/C=C/C(O)CC(O)CC(=O)O)c(-c2ccc(F)cc2)c1OC` (centres unmarked), the IC50 is reported as 26.4 nM. With `COCCOCCOc1c(OC)cc(C(C)C)c(/C=C/C(O)CC(O)CC(=O)O)c1-c1ccc(F)cc1` (centres unmarked) the IC50 was 9.43 nM. `COCCOc1c(OC)cc(C(C)C)c(/C=C/C(O)CC(O)CC(=O)O)c1-c1ccc(F)cc1` (centres unmarked) showed an IC50 of 25.6 nM.

These molecules were tested on biosynthesis of sterol (assay: Determination of Inhibition of Sterol Synthesis (liver, after oral administration to rats)). Conditions: Rattus norvegicus, 2 h; 0.3 mg/5ml/kg oral in 5% arabic gum, SD rats; 14C-acetic acid (100 μCi/kg) i.p. 1 h later; liver removed 1 h after that; read-out: Inhibition of Sterol Synthesis.
Type: in vivo, SD rats
Method: Test 2 Determination of Inhibition of Sterol Synthesis
Representative compounds (0.3 mg/5ml/kg) suspended in a 5% arabic gum solution were orally given to SD rats weighing 150 to 200 g. One hour later, ^14 C-acetic acid (100 μCi/kg) was intraperitoneally injected, and furthermore one hour later, liver was removed to determine the inhibitory activity of each of the compounds on the biosynthesis of sterol in accordance with the method described in European Journal of Biochemistry (Eur. J. Biochem.) Vol.77, page 31 (1977).
For `CCC(C)(C)C(=O)O[C@H]1C[C@@H](C)C=C2C=C[C@H](C)[C@H](CC[C@@H]3C[C@@H](O)CC(=O)O3)[C@H]21` [Simvastatin, reference compound], the inhibition in vivo at 0.3 mg/kg was 24%.

Same assay, conditions: Rattus norvegicus, po, 2 h, read-out: Inhibition of Sterol Synthesis
`COc1c(C)cc(C(C)C)c(/C=C/C(O)CC(O)CC(=O)O)c1-c1ccc(F)cc1` (centres unmarked) gave an inhibition in vivo at 0.3 mg/kg of 65%. For `COc1c(OCCO)cc(C(C)C)c(/C=C/C(O)CC(O)CC(=O)O)c1-c1ccc(F)cc1` (centres unmarked), the inhibition in vivo at 0.3 mg/kg was 61%. `COc1c(Cl)cc(C(C)C)c(/C=C/C(O)CC(O)CC(=O)O)c1-c1ccc(F)cc1` (centres unmarked) showed an inhibition in vivo at 0.3 mg/kg of 71%. `COCCOc1cc(C(C)C)c(/C=C/C(O)CC(O)CC(=O)O)c(-c2ccc(F)cc2)c1OC` (centres unmarked) gave an inhibition in vivo at 0.3 mg/kg of 71%. In the case of `COc1cc(C(C)C)c(/C=C/C(O)CC(O)CC(=O)O)c(-c2ccc(F)cc2)c1OC` (centres unmarked), the inhibition in vivo at 0.3 mg/kg is reported as 71%. `COCCOCCOc1cc(C(C)C)c(/C=C/C(O)CC(O)CC(=O)O)c(-c2ccc(F)cc2)c1OC` (centres unmarked) showed an inhibition in vivo at 0.3 mg/kg of 62%. Molecule `COCCOCCOc1c(OC)cc(C(C)C)c(/C=C/C(O)CC(O)CC(=O)O)c1-c1ccc(F)cc1` (centres unmarked) has an inhibition in vivo at 0.3 mg/kg of 69%. `COCCOc1c(OC)cc(C(C)C)c(/C=C/C(O)CC(O)CC(=O)O)c1-c1ccc(F)cc1` (centres unmarked) was tested, and the inhibition in vivo at 0.3 mg/kg was 60%.
